We go through 2 compounds from patent US12629392B2, “Method of treating covid-19 infection using superparamagnetic iron oxide nanoparticle” (Imam Abdulrahman Bin Faisal University, priority 2023, dated 2026).

SMILES strings stand for the structures.

One assay deals with A549 cells. The assay is described as follows: Cell viability (MTT) assay, A549 cells. The assay is classed as cell-based, human. Conditions: 48 hours, two-way ANOVA with Dunnett's.
Another assay concerns HEK293 cells. The assay is described as follows: Cell viability (MTT) assay, HEK293 cells. It counts as cell-based, human. The settings on record: 48 hours, two-way ANOVA with Dunnett's.
Where [1] appears, read: Dose 1 (0.025 mg/ml nanocomposite; 0.001125 mg/ml free Cp, Rib).
Where [2] appears, read: Dose 2 (0.05 mg/ml nanocomposite; 0.00225 mg/ml free Cp, Rib).
Where [3] appears, read: Dose 3 (0.1 mg/ml nanocomposite; 0.0045 mg/ml free Cp, Rib).
Setting [4] is: Dose 4 (0.5 mg/ml nanocomposite; 0.0225 mg/ml free Cp, Rib).

For the compound `N.N.[Cl][Pt][Cl]` [Cp, cisplatin], the “Significant (cell viability vs no-treatment control)” value was “No” in the assay on A549 cells (setting [1]); “No” in the assay with A549 cells (setting [2]); “No” in the assay on A549 cells (setting [3]); “Yes” in the assay on A549 cells (setting [4]); “No” in the assay with HEK293 cells (setting [1]); “No” in the assay on HEK293 cells (setting [2]). The “Significant (cell viability vs no-treatment control)” value in the assay with HEK293 cells (setting [3]) is “No”; in the assay on HEK293 cells (setting [4]) it was “Yes”.

As for `NC(=O)c1ncn([C@@H]2O[C@H](CO)[C@@H](O)[C@H]2O)n1` [Rib, 1-β-D-Ribofuranosyl-1,2,4-triazole-3-carboxamide], the “Significant (cell viability vs no-treatment control)” value in the assay on A549 cells (setting [1]) is “No”; in the assay on A549 cells (setting [2]), “No”; with A549 cells (setting [3]), “No”; in the assay on A549 cells (setting [4]) it was “Yes”; in the assay on HEK293 cells (setting [1]) it was “No”; with HEK293 cells (setting [2]) it was “No”. The “Significant (cell viability vs no-treatment control)” value in the assay with HEK293 cells (setting [3]) and in the assay with HEK293 cells (setting [4]) was “Yes” in each case.
